Results: article PMC13211308, “Chemical genetics reveals Leishmania KKT2 and CRK9 kinase activity is required for cell cycle progression” (PLOS Pathogens, 2026)

Target: T1, rCLK1 (recombinant CLK1, KKT10) (Leishmania mexicana, UniProt E9AMP2)
T1 construct: gene LMXM_09_0400
T1 sequence (E9AMP2 1-422): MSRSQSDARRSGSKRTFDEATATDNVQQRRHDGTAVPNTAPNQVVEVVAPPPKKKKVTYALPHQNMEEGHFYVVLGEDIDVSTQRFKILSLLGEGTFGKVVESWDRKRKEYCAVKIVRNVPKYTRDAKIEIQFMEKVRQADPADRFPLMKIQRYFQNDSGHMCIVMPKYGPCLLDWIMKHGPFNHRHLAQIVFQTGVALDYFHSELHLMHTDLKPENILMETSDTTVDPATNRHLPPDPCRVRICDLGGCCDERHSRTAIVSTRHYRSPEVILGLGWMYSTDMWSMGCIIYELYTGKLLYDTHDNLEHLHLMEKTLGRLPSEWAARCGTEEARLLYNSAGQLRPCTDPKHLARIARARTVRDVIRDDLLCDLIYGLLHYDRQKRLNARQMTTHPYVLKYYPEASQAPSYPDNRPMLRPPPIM
Details: 1 mM ATP, 5 mM MgCl2, 1 mM MnCl2, pH 7.5, 2 h, 37 °C

## Nc1ncnc2c1ncn2[C@@H]1O[C@H](COP(=O)(O)OP(=O)(O)OP(=O)(O)O)[C@@H](O)[C@H]1O [ATP]
  autophosphorylation by intact mass spectrometry: Following incubation with ATP, rCLK1 exhibited three distinct phosphorylation states
